Results from US20130252930A1 (BIOMARIN PHARMACEUTICAL INC., priority 2010, published 2013).
Read-outs that look alike come from different tables or passages of the source.

Columns and labels:
[1] = target: T1, CYP17 (human testicular microsome) (Homo sapiens, UniProt P05093); test: CYP17 enzymatic assay (% inhibition at 1 nM) (Biological Example 12); format: biochemical
T1 construct: using microsomal fraction from human testis (Celsis Cat #S00110) as the enzyme source; tissue Celsis S00110; host or cells: human testis microsomal fraction
T1 sequence (P05093 1-508): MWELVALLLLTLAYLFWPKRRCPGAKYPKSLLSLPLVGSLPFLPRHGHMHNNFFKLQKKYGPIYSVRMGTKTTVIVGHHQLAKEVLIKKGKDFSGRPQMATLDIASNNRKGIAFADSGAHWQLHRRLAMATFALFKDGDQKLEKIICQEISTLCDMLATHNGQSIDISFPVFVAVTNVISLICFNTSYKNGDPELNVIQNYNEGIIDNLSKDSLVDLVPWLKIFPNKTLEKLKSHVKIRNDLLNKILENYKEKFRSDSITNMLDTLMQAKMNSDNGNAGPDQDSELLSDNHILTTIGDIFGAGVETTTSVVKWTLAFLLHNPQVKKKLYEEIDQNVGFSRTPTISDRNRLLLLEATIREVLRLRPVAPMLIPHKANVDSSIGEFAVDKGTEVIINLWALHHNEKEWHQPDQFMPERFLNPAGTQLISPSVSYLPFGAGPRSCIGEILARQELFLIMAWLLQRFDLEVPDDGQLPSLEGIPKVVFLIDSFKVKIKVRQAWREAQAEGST

[2] = test system: rat Cyp11B enzyme (rat adrenal mitochondria); test: CYP11B enzymatic assay (% inhibition at 100 nM) (Biological Example 9); format: biochemical; settings: compound at 100 nM
Description: Adrenals excised from Sprague Dawley rats were homogenized, and mitochondria fraction were prepared by a series of centrifugation as described in Shuji Ohno, et al. J. of Steroid Biochemistry & Molecular Biology 2002, 80, 355-363. Prepared mitochondria protein was washed and resuspended in Buffer B (0.21 M mannitol, 70 mM sucrose, 5 mM MgCl2, 0.5 mM CaCl2, 20 mM Tris-HCl (pH 7.4) and 1 mM DTT, […]). The protein concentration was determined by BCA assay and stored as 10 μL aliquots at −80° C.
The rat Cyp11B enzyme assay was performed in 96-well plates. Typical assays were carried out in total 50 μL volume that included test compounds at 100 nM concentration, 1× Buffer B, 0.5 mM NADPH, 0.1 μM 11-deoxycortisol, and 2 μL of prepared rat adrenal mitochondria (added last). Reaction without test compound served as positive control and reaction without NADPH served as negative control. Reactions were allowed to incubate at 37° C. for 60 min with gentle shaking. The reaction was stopped by directly applying the enzymatic reaction mixture (1:5 diluted in ELISA assay buffer) to ELISA plate for evaluation of cortisol concentration according to manufacturer's protocol (Assay Design).
The mean absorbance value for each sample was used to determine the corresponding concentration from the standard curve. Amount of cortisol in the negative control (reaction that dis not include NADPH) was subtracted from total cortisol. Percent inhibition (inhibition %) of the compound was calculated using normalized cortisol concentration based on following formula: 100−([Cortisol] of compound/[Cortisol] of positive control *100).

[3] = target: T1, CYP17 (human testicular microsome); test: CYP17 enzymatic assay (IC50) (Biological Example 4); format: biochemical
[4] = target: T2, CYP17 (H295R cells) (Homo sapiens, UniProt P05093); test: CYP17 cellular assay (IC50), testosterone in H295R cells (Biological Example 7); format: cell-based; settings: H295R cells
T2 construct: endogenous in cells; host or cells: H295R cells
T2 sequence (P05093 1-508): T1 sequence (P05093 1-508)
Procedure, shortened: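 Testosterone in the medium was quantified by ELISA after 24 h at 37 °C with test compound (final 100, 10, 1, 0.1 nM; serum-free DMEM/F-12, ITS+, 0.1% methanol). The H295R cells had been seeded and grown 24 h beforehand; vehicle wells served as control.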

[5] = Human liver microsome stability assay (Biological Example 8b); settings: liver microsomes, pH 7.4
[6] = target: T3, Cyp21 enzyme (Human HEK 293-Cyp21 stable transfected cells) (Homo sapiens, UniProt P08686); test: CYP21-HEK293 enzymatic assay (IC50) (Biological Example 11); format: cell-based; settings: HEK 293-Cyp21 cells
T3 construct: expressed in transfected cells
T3 sequence (P08686 1-495): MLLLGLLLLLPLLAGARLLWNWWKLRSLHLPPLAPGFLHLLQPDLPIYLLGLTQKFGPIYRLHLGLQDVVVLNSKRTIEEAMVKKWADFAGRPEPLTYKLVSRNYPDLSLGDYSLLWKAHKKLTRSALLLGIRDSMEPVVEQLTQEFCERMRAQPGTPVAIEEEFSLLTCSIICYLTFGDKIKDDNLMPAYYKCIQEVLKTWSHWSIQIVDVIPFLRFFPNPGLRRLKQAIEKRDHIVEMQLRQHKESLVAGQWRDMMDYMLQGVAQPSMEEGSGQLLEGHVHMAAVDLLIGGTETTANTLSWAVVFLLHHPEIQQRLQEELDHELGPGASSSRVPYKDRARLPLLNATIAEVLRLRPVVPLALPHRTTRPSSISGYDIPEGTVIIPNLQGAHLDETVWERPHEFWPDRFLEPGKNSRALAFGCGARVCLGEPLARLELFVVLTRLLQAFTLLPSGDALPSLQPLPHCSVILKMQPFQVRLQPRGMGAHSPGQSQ

[7] = compound at 1 nM, read-out: Biological Example No. 12: CYP17 enzymatic assay % inhibition at 1 nM
[8] = compound at 1 nM, read-out: CYP17 enzymatic assay % inhibition at 1 nM (Biological Example No. 12)
[9] = testosterone, read-out: Biological Example No. 7: CYP17 cellular assay IC50
[10] = read-out: Biological Example No. 11: CYP21-HEK293 enzymatic assay IC50

| SMILES | inhibition at 0.001 µM [1, 8] [%] | inhibition at 0.001 µM [1, 7] [%] | Biological Example No. 9: CYP11B enzymatic assay % inhibition at 100 nM [2] | CYP11B enzymatic assay % inhibition at 100 nM (Biological Example No. 9) [2] | half-life at 1 μM [5] [min] | further results |
| --- | --- | --- | --- | --- | --- | --- |
| C[C@]12CC[C@H](O)CC1=CC[C@@H]1[C@@H]2CC[C@]2(C)C(n3cncc3C#N)=CC[C@@H]12 [Compound 426, 1-((3S,10R,13S)-3-hydroxy-10,13-dimethyl-2,3,4,7,8,9,10,11,12,13,14,15-dodecahydro-1H-cyclopenta[a]phenanthren-17-yl)-1H-imidazole-5-carbonitrile] | – | 10 to 50 | U (U means the compound had a percent inhibition of greater than or equal to 32%) | – | – | – |
| CN1C(=O)CC[C@@]2(C)C1=CC[C@@H]1[C@@H]2CC[C@]2(C)C(n3cncc3C#N)=CC[C@@H]12 [Compound 433, 1-((4aR,6aS)-1,4a,6a-trimethyl-2-oxo-2,3,4,4a,4b,5,6,6a,9,9a,9b,10-dodecahydro-1H-indeno[5,4-f]quinolin-7-yl)-1H-imidazole-5-carbonitrile] | – | < 10 | T (T means the compound had a percent inhibition of less than 32% when tested at 100 nM) | – | – | – |
| CN1C(=O)C[C@@]2(C)C1=CCC1C2CC[C@]2(C)C(n3ccnc3)=CCC12 (stereo partly drawn) [Compound 186, (3aR,5aS)-6-(1H-imidazol-1-yl)-1,3a,5a-trimethyl-3,3a,3b,4,5,5a,8,8a,8b,9-decahydroindeno[5,4-e]indol-2(1H)-one] | 10 to 50 | – | – | U (U means the compound had a percent inhibition of greater than or equal to 32%) | – | – |
| COC(=O)c1cncn1C1=CCC2C3CC=C4C[C@@H](O)CC[C@]4(C)C3CC[C@]12C (stereo partly drawn) [Compound 476, methyl 1-((3S,10R,13S)-3-hydroxy-10,13-dimethyl-2,3,4,7,8,9,10,11,12,13,14,15-dodecahydro-1H-cyclopenta[a]phenanthren-17-yl)-1H-imidazole-5-carboxylate] | – | 10 to 50 | na (“na” means the compound was not active under the conditions tested) | – | – | – |
| C[C@]12CCC(=O)C=C1C(F)CC1C2CC[C@]2(C)C(c3cccnc3)=CCC12 (stereo partly drawn) [D, (10R,13S)-6-fluoro-10,13-dimethyl-17-(pyridin-3-yl)-6,7,8,9,10,11,12,13,14,15-decahydro-1H-cyclopenta[a]phenanthren-3(2H)-one, reference compound] | – | – | – | – | 1 to 50 | IC50 ([3]; human testicular microsome, DHEA by ELISA, read-out: Biological Example No. 4: CYP17 enzymatic assay IC50): < 11 nM; inhibition at 0.001 µM ([1]; 1 nM compound, DHEA by ELISA, read-out: Biological Example No. 12: CYP17 percent inhibition at 1 nM): > 50%; IC50 ([4]; testosterone by ELISA, 24 hours, read-out: Biological Example No. 7: CYP17 cellular assay IC50): < 15 nM; IC50 ([6]; DOC by ELISA, read-out: Biological Example No. 11: CYP21-HEK293 IC50): > 1000 nM |
| C[C@]12CC[C@H]3[C@@H](CCC4=CC(=O)C=C[C@@]43C)C1=CC=C2c1cccnc1 [Compound 290, (10R,13S)-10,13-dimethyl-17-(pyridin-3-yl)-6,7,8,9,10,11,12,13-octahydro-3H-cyclopenta[a]phenanthren-3-one] | > 50 | – | – | – | 1 to 50 | IC50 ([3]; human testicular microsome, read-out: CYP17 enzymatic assay IC50 (Biological Example No. 4)): < 11 nM; IC50 ([4]; testosterone, read-out: CYP17 cellular assay IC50 (Biological Example No. 7)): < 15 nM; IC50 ([6]; read-out: CYP21-HEK293 enzymatic assay IC50 (Biological Example No. 11)): 10 to 100 nM |
| C[C@]12CC[C@H]3[C@@H](CCC4=CC(=O)CC[C@@]43C)C1=CC=C2c1cncc(F)c1 [Compound 352, (10R,13S)-17-(5-fluoropyridin-3-yl)-10,13-dimethyl-6,7,8,9,10,11,12,13-octahydro-1H-cyclopenta[a]phenanthren-3(2H)-one] | – | > 50 | – | – | 1 to 50 | IC50 ([3]; human testicular microsome, read-out: Biological Example No. 4: CYP17 enzymatic assay IC50): < 11 nM; IC50 [4, 9]: < 15 nM; IC50 [6, 10]: 10 to 100 nM |
| C[C@]12C=CC(=O)C=C1C1(CC1)C[C@@H]1[C@@H]2CC[C@]2(C)C(c3cccnc3)=CC[C@@H]12 [Compound 316, (10R,13S)-10,13-dimethyl-17-(pyridin-3-yl)-7,8,9,11,12,13,14,15-octahydrospiro[cyclopenta[a]phenanthrene-6,1′-cyclopropan]-3(10H)-one] | – | 10 to 50 | – | – | 1 to 50 | IC50 [3]: < 11 nM; IC50 [4, 9]: < 15 nM; IC50 [6, 10]: < 10 nM |
| CN1C(=O)CC[C@@]2(C)C1=CCC1C2CC[C@]2(C)C(c3cncc(F)c3)=CCC12 (stereo partly drawn) [Compound 428, (4aR,6aS)-7-(5-fluoropyridin-3-yl)-1,4a,6a-trimethyl-4,4a,4b,5,6,6a,9,9a,9b,10-decahydro-1H-indeno[5,4-f]quinolin-2(3H)-one] | – | 10 to 50 | U (U means the compound had a percent inhibition of greater than or equal to 32%) | – | – | – |

Continued, in another order:

| inhibition at 0.001 µM [1, 8] [%] | SMILES | inhibition at 0.001 µM [1, 7] [%] | Biological Example No. 9: CYP11B enzymatic assay % inhibition at 100 nM [2] | CYP11B enzymatic assay % inhibition at 100 nM (Biological Example No. 9) [2] | half-life at 1 μM [5] [min] | further results |
| --- | --- | --- | --- | --- | --- | --- |
| 10 to 50 | CCOc1cncc(C2=CCC3C4CC=C5N(C)C(=O)C[C@]5(C)C4CC[C@]23C)c1 (stereo partly drawn) [Compound 189, (3aR,5aS)-6-(5-ethoxypyridin-3-yl)-1,3a,5a-trimethyl-3,3a,3b,4,5,5a,8,8a,8b,9-decahydroindeno[5,4-e]indol-2(1H)-one] | – | – | U (U means the compound had a percent inhibition of greater than or equal to 32%) | – | – |
| 10 to 50 | Cc1cncc(C2=CCC3C4CC=C5N(C)C(=O)C[C@]5(C)C4CC[C@]23C)c1 (stereo partly drawn) [Compound 188, (3aR,5aS)-1,3a,5a-trimethyl-6-(5-methylpyridin-3-yl)-3,3a,3b,4,5,5a,8,8a,8b,9-decahydroindeno[5,4-e]indol-2(1H)-one] | – | – | T (T means the compound had a percent inhibition of less than 32% when tested at 100 nM) | – | – |
| 10 to 50 | CC(=O)N1CCC[C@@]2(C)[C@@H](CC[C@@H]3[C@@H]2CC[C@]2(C)C(n4ccnc4)=CC[C@@H]32)C1 [Compound 443, 1-((5aR,5bS,7aS,10aS,10bR,12aR)-8-(1H-imidazol-1-yl)-5a,7a-dimethyl-3,4,5,5a,5b,6,7,7a,10,10a,10b,11,12,12a-tetradecahydrocyclopenta[5,6]naphtho[2,1-c]azepin-2(1H)-yl)ethanone] | – | – | U (U means the compound had a percent inhibition of greater than or equal to 32%) | – | – |
